Experimental findings from ChEMBL document CHEMBL4138296, “Nonacidic Chemotype Possessing N-Acylated Piperidine Moiety as Potent Farnesoid X Receptor (FXR) Antagonists” (ACS Med Chem Lett, 2018) are described below.

One may read the IC50 as the concentration at which inhibition is half-maximal.

Activity calls are given as the source filed them. The calls are words filed in the database; no cut-off is given here.

Experiment [1] addresses T1, Oxysterols receptor LXR-beta (Homo sapiens) (UniProt P55055).
T1 sequence (whole entry): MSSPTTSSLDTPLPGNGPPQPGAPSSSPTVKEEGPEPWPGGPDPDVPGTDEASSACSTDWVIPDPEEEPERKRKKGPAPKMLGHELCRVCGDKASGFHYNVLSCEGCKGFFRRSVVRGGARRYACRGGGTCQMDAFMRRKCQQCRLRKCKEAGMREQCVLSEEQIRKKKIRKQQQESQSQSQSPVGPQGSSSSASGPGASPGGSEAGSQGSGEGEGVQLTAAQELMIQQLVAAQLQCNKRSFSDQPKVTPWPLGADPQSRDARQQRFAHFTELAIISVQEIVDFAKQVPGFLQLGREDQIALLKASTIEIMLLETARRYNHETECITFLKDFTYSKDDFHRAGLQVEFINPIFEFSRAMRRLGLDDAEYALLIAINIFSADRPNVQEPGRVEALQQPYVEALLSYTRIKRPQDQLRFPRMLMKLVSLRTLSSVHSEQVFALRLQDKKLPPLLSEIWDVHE
The experiment can be described thus: Agonist activity at LXRbeta (unknown origin) at 1 uM by luciferase reporter gene assay. In general terms: A reporter such as luciferase makes a cellular process visible.

Experiment [2] concerns the target T2, Peroxisome proliferator-activated receptor alpha (Homo sapiens) (UniProt Q07869).
T2 sequence (whole entry): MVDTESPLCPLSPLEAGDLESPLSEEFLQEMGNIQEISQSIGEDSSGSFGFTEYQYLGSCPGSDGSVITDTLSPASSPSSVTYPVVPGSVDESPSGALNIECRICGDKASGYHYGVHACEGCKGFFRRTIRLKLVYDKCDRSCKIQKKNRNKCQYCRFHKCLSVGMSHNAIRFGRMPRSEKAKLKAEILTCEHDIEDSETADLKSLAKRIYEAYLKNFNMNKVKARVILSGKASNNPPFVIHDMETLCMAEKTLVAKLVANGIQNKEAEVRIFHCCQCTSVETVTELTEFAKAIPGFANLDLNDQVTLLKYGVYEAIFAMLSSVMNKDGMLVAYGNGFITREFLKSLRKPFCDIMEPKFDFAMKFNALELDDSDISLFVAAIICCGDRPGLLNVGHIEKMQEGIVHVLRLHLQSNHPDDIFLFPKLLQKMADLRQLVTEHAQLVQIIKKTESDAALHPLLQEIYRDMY
The experiment can be described thus: Antagonist activity at PPARalpha (unknown origin) assessed as inhibition of GW7647-induced response at 1 uM by luciferase reporter gene assay.

Experiment [3] has as its target T2, Peroxisome proliferator-activated receptor alpha (Homo sapiens). Nature of the experiment: Agonist activity at PPARalpha (unknown origin) at 1 uM by luciferase reporter gene assay.
For the next experiment, the system named is Hep 3B2. Nature of the experiment: Cytotoxicity against human Hep3B cells assessed as reduction in cell viability by MTT assay. Type of experiment: functional, cell-based. A general note: Tetrazolium assays rely on reduction of a dye to a coloured formazan, in cell work by metabolically active cells.
The target in experiment [4] is T3, Retinoic acid receptor alpha (Homo sapiens) (UniProt P10276).
T3 sequence (whole entry): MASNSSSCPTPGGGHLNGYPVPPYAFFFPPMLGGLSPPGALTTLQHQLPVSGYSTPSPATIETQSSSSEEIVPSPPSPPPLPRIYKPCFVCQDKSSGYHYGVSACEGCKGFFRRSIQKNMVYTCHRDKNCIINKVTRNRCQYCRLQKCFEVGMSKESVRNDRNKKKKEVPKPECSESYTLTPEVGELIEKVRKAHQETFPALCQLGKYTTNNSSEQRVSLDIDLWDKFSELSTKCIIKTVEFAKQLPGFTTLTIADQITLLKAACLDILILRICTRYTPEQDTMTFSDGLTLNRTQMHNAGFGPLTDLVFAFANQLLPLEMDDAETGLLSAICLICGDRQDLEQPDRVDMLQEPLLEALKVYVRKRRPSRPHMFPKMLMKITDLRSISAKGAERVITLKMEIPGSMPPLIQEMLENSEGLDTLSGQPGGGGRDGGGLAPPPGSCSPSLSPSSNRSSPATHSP
Nature of the experiment: Agonist activity at RARalpha (unknown origin) at 1 uM by luciferase reporter gene assay.

The target of experiment [5] is T4, Peroxisome proliferator-activated receptor delta (Homo sapiens) (UniProt Q03181).
T4 sequence (whole entry): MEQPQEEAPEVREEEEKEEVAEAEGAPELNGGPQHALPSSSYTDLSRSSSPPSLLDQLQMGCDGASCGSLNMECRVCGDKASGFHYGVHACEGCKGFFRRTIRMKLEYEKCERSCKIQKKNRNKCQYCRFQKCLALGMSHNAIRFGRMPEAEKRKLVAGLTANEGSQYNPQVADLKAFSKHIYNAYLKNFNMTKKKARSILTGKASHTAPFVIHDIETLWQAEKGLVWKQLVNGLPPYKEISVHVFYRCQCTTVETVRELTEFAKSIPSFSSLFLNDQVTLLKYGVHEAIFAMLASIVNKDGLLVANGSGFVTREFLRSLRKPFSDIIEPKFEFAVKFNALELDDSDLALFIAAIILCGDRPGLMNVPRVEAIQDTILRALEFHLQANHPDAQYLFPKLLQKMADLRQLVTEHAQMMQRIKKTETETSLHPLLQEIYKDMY
Nature of the experiment: Agonist activity at PPARdelta (unknown origin) at 1 uM by luciferase reporter gene assay.

Another experiment addresses T5, Bile acid receptor (Homo sapiens, UniProt Q96RI1).
T5 sequence (Q96RI1 whole entry): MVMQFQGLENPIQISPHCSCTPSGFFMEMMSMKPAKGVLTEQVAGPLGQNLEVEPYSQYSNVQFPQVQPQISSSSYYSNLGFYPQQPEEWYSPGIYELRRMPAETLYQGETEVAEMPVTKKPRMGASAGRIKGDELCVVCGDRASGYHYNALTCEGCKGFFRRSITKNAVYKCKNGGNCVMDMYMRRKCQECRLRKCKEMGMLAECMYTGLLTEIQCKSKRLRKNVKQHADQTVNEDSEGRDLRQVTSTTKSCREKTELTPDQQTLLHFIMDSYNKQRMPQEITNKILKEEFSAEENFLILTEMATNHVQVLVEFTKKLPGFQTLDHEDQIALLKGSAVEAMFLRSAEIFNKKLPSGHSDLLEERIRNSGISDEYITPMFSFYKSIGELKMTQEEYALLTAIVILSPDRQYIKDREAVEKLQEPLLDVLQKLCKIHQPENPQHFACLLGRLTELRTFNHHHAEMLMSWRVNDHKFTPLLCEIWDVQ
Nature of the experiment: Antagonist activity at human FXR expressed in Hep3B cells assessed as inhibition of CDCA-induced FXR response element driven luciferase activity after 24 hrs. Type of experiment: cell-based.

Regarding `Cc1ccc2nc([C@H](CC3CCN(C(=O)C(C)C)CC3)N3C(=O)CN(c4ccc(Oc5ccccc5)cc4)C3=O)n(C)c2c1`, the result in experiment [1], in experiment [3], in experiment [4] and in experiment [5] was inactive. Further, in experiment [2], the inhibition result is “inactive”. Also, the results for the IC50 in the experiment on Hep 3B2 and at Bile acid receptor were more than 100 µM and less than 1 pM, respectively.
